Assays:
[1] = target: Carbonic anhydrase 9 (Homo sapiens, UniProt Q16790); assay: Inhibition of human Carbonic anhydrase 9-mediated CO2 hydration by stopped-flow method
[2] = target: Carbonic anhydrase 12 (Homo sapiens, UniProt O43570); assay: Inhibition of human Carbonic anhydrase 12-mediated CO2 hydration by stopped-flow method
[3] = target: Carbonic anhydrase 2 (Homo sapiens, UniProt P00918); assay: Inhibition of human Carbonic anhydrase 2-mediated CO2 hydration by stopped-flow method
[4] = target: Carbonic anhydrase 1 (Homo sapiens, UniProt P00915); assay: Inhibition of human Carbonic anhydrase 1-mediated CO2 hydration by stopped-flow method
Carbonic anhydrase 1, sequence (P00915 whole entry): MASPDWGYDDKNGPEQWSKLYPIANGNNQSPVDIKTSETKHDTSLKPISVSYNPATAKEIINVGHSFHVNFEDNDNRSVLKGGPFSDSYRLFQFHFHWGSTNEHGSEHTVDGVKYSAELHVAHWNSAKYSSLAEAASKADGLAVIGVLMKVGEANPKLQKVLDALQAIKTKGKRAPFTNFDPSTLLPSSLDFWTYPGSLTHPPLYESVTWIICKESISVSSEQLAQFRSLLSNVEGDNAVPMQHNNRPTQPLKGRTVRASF

[5] = tested on: B16-F10; assay: Antimetastatic activity against mouse B16F10 cells xenografted in C57BL mouse assessed as decrease in lung metastasis at 25 mg/kg, ip administered QD measured after 21 days; format: functional; set-up: scale not given: the % may be the effect or the level left; conditions: route intraperitoneal
[6] = tested on: B16-F10; assay: Antimetastatic activity against mouse B16F10 cells xenografted in C57BL mouse assessed as decrease in lung metastasis at 12.5 mg/kg, ip administered QD measured after 21 days; format: functional; set-up: scale not given: the % may be the effect or the level left; conditions: route intraperitoneal
[7] = tested on: B16-F10; assay: Antimetastatic activity against mouse B16F10 cells xenografted in C57BL mouse assessed as decrease in lung metastasis at 50 mg/kg, po administered QD measured after 21 days; format: functional; set-up: scale not given: the % may be the effect or the level left
[8] = target: T1, 72 kDa type IV collagenase (Homo sapiens, UniProt P08253); assay: Inhibition of human recombinant MMP2 measured every 5 mins for 3 hrs
T1 sequence (P08253 whole entry): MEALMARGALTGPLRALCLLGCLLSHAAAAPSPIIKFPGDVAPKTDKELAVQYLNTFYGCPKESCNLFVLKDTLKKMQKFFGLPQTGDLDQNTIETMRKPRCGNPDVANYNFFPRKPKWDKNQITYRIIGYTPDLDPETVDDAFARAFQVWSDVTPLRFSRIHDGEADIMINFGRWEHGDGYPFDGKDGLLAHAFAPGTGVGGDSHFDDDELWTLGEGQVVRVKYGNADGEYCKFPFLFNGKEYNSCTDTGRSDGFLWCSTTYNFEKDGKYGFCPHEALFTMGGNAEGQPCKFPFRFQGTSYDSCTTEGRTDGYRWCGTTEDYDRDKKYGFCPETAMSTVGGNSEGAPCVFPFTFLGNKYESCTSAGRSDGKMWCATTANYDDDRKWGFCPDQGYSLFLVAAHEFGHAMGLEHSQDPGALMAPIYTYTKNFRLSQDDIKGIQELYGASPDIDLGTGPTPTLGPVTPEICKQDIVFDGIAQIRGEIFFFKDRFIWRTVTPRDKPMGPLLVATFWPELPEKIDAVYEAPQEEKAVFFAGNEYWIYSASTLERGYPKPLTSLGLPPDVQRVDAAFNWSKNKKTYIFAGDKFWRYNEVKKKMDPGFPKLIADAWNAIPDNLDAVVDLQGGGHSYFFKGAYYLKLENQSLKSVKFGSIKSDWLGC

[9] = tested on: HeLa; assay: Cytotoxicity against human HeLa cells assessed as increase in LDH level up to 100 uM after 24 hrs in normoxic condition by spectrophotometric analysis relative to control; format: cell-based
[10] = tested on: HT-1080; assay: Cytotoxicity against human HT1080 cells assessed as increase in LDH level up to 100 uM after 24 hrs in normoxic condition by spectrophotometric analysis relative to control; format: cell-based; conditions: ht-1080, 24 h
[11] = tested on: HT-1080; assay: Cytotoxicity against human HT1080 cells assessed as increase in LDH level after 24 hrs in hypoxic condition by spectrophotometric analysis relative to control; format: functional, cell-based
[12] = tested on: HeLa; assay: Cytotoxicity against human HeLa cells assessed as increase in LDH level after 24 hrs in hypoxic condition by spectrophotometric analysis relative to control; format: functional, cell-based
[13] = tested on: HT-1080; assay: Cytotoxicity against human HT1080 cells assessed as increase in LDH level at 1 uM after 24 hrs in hypoxic condition by spectrophotometric analysis relative to control; format: functional
[14] = tested on: HT-1080; assay: Cytotoxicity against human HT1080 cells assessed as increase in LDH level at 10 uM after 24 hrs in hypoxic condition by spectrophotometric analysis relative to control; format: functional
[15] = tested on: HT-1080; assay: Cytotoxicity against human HT1080 cells assessed as increase in LDH level at 50 uM after 24 hrs in hypoxic condition by spectrophotometric analysis relative to control; format: functional
[16] = tested on: B16-F10; assay: Antimetastatic activity against mouse B16F10 cells xenografted in C57BL mouse assessed as decrease in lung metastasis at 50 mg/kg, ip administered QD measured after 21 days; format: functional; set-up: scale not given: the % may be the effect or the level left; conditions: route intraperitoneal
[17] = tested on: Hydroxyapatite; assay: Binding affinity to bone mineral hydroxyapatite at 100 uM after 17 hrs
[18] = Half life in Sprague-Dawley rat at 33 mg/kg, iv; format: ADME, organism-based; set-up: dose 33 mg/kg, route intravenous; conditions: in vivo
[19] = Volume of distribution at steady state in Sprague-Dawley rat at 33 mg/kg, iv; format: ADME, organism-based; set-up: dose 33 mg/kg, route intravenous; conditions: in vivo, read-out: Vdss
[20] = tested on: HeLa; assay: Cytotoxicity against human HeLa cells assessed as increase in LDH level at 50 uM after 24 hrs in hypoxic condition by spectrophotometric analysis relative to control; format: functional
[21] = target: T1, 72 kDa type IV collagenase; assay: Inhibition of MMP2

Carbonic anhydrase 12, sequence (O43570 whole entry): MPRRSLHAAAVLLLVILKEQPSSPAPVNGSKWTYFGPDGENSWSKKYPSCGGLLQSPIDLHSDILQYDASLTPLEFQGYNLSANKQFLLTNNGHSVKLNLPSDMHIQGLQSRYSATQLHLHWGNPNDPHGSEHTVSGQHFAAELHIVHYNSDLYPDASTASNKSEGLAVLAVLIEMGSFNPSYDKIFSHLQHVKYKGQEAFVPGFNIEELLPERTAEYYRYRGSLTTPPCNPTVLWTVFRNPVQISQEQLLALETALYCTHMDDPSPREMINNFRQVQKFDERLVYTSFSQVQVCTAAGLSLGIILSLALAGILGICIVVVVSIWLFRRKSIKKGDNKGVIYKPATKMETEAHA

Row | Structure (SMILES) | IC50 [1] | IC50 [2] | IC50 [3] | IC50 [4] | also measured
1 | O=C(NCC1CCCCC1)P(=O)(O)O [CYCLOHEXYLMETHYLCARBAMOYLPHOSPHONIC ACID] | 8.59 µM | 7.44 µM | 9.23 µM | 7.36 µM | –
2 | CCOP(=O)(OCC)C(=O)NCCCCNC(=O)P(=O)(OCC)OCC | 9.65 µM | 2.72 µM | 9.59 µM | 9.7 µM | –
3 | O=C(NCCNS(=O)(=O)c1ccc(Oc2ccccc2)cc1)P(=O)(O)O | 7 µM | 6.9 µM | 0.82 µM | 0.98 µM | –
4 | O=C(NC1CCCCC1)P(=O)(O)O [(CYCLOHEXYLAMINO)CARBONYLPHOSPHONIC ACID] | 8.89 µM | 5.59 µM | 8.81 µM | 7.89 µM | –
5 | C[C@@H](NC(=O)P(=O)(O)O)C1CCCCC1 | 8.12 µM | 6.97 µM | 8.85 µM | 6.78 µM | –
6 | O=C(NCCc1ccccc1)P(=O)(O)O [PHENETHYLCARBAMOYLPHOSPHONIC ACID] | 6.08 µM | 5.44 µM | 8 µM | 7.68 µM | –
7 | N[C@H]1CCCC[C@@H]1NC(=O)P(=O)(O)O | 7.14 µM | 8.26 µM | 8.28 µM | 8.24 µM | –
8 | N[C@@H]1CCCC[C@@H]1NC(=O)P(=O)(O)O | 8.6 µM | 6 µM | 1.32 µM | 1.6 µM | –
9 | O=C(NCCCCCCNS(=O)(=O)c1ccc(Oc2ccccc2)cc1)P(=O)(O)O | 7 µM | 6.2 µM | 0.1 µM | 0.38 µM | Activity [5]: 90%; Activity [6]: 82%; Activity [7]: 50%; IC50 [8]: 4 µM; Activity [9]: Non-toxic; Activity [10]: Non-toxic; Activity [11]: Dose-dependent effect; Activity [12]: Dose-dependent effect; fold change (FC) [13]: 1; fold change (FC) [14]: 1.3; fold change (FC) [15]: 1.9
10 | CC(C)NC(=O)P(=O)(O)O [(ISOPROPYLAMINO)CARBONYLPHOSPHONIC ACID] | 8.3 µM | 7.27 µM | 13.9 µM | 8.81 µM | –
11 | O=C(NCCCCNS(=O)(=O)c1ccc(Oc2ccccc2)cc1)P(=O)(O)O | 6.1 µM | 5.6 µM | 0.1 µM | 0.75 µM | –
12 | CCC(CC)NC(=O)P(=O)(O)O | 8.26 µM | 4.65 µM | 8.79 µM | 6.71 µM | –
13 | O=C(NCCCNS(=O)(=O)c1ccc(Oc2ccccc2)cc1)P(=O)(O)O | 6.8 µM | 6.4 µM | 0.58 µM | 0.71 µM | –
14 | O=C(NCCCCCNS(=O)(=O)c1ccc(Oc2ccccc2)cc1)P(=O)(O)O | 6.3 µM | 5.7 µM | 0.31 µM | 0.52 µM | Activity [5]: 76%; Activity [6]: 57%; Activity [7]: 80%; Activity [16]: 90%; IC50 [8]: 4 µM; Drug absorption [17]: 44%; half-life [18]: 540 min; Vd [19]: 1.65 L/kg; Activity [9]: Non-toxic; Activity [10]: Non-toxic; Activity [11]: Dose-dependent effect; Activity [12]: Dose-dependent effect; fold change (FC) [13]: 1; fold change (FC) [14]: 1.5; fold change (FC) [20]: 1.3; fold change (FC) [15]: 2.3
15 | O=C(NCCNC(=O)P(=O)(O)O)c1ccc(Oc2ccccc2)cc1 | 9.9 µM | 8.6 µM | 0.61 µM | 0.62 µM | IC50 [21]: 20 µM
16 | C[C@H](NC(=O)P(=O)(O)O)C1CCCCC1 | 6.36 µM | 6.64 µM | 9.45 µM | 5.31 µM | –
17 | O=C(NC1CCCC1)P(=O)(O)O [(CYCLOPENTYLAMINO)CARBONYLPHOSPHONIC ACID] | 8.97 µM | 7.26 µM | 7.41 µM | 8.79 µM | Activity [7]: 80%; Activity [16]: 86%
18 | O=C(NCCN1CCCC1)P(=O)(O)O | 8.8 µM | 5.43 µM | 9.66 µM | 9.43 µM | –
19 | O=C(NCCN1CCCCC1)P(=O)(O)O | 9 µM | 7.64 µM | 8.6 µM | 7.82 µM | –
20 | O=C(NC1CCCCCCC1)P(=O)(O)O [(CYCLOOCTYLAMINO)CARBONYLPHOSPHONIC ACID] | 9.14 µM | 7.99 µM | 7.89 µM | 8.02 µM | –
21 | O=C(NCCCCNC(=O)P(=O)(O)O)P(=O)(O)O | 9.1 µM | 6.02 µM | 8.82 µM | 9.74 µM | –

Reference: ChEMBL document CHEMBL2169810, “Carbamoylphosphonates control tumor cell proliferation and dissemination by simultaneously inhibiting carbonic anhydrase IX and matrix metalloproteinase-2. Toward nontoxic chemotherapy targeting tumor microenvironment” (J Med Chem, 2012)
